Patent US10208003B2, “Synthesis of amine substituted 4,5,6,7-tetrahydrobenzothiazole compounds” (KNOPP BIOSCIENCES LLC, priority 2011, dated 2019)

SMILES: CCCN[C@@H]1CCc2nc(N)sc2C1.Cl.Cl [Form B, (R)-(+)-2-amino-4,5,6,7-tetrahydro-6-(n-propylamino)benzothiazole dihydrochloride]
- polymorphic form conversion under exposure to humidity and/or moisture: converts to Form A
